Laboratory results reported in ChEMBL document CHEMBL1142178, “Lysostaphin-resistant variants of Staphylococcus aureus demonstrate reduced fitness in vitro and in vivo” (2007).

Columns and labels:
Assay type in all cases: functional
Staphylococcus aureus [1] = assay: Antibacterial activity against methicillin-resistant Staphylococcus aureus Col and Staphylococcus aureus Col-LysoR co-infected in CF1 mouse assessed as kidney infection after 7 days
Staphylococcus aureus [2] = assay: Antibacterial activity against methicillin-resistant Staphylococcus aureus Col in CF1 mouse assessed as kidney infection after 7 days
Staphylococcus aureus [3] = assay: Antibacterial activity against methicillin-resistant Staphylococcus aureus MBT 5040 in CF1 mouse assessed as kidney infection after 7 days
Staphylococcus aureus [4] = assay: Antibacterial activity against methicillin-resistant Staphylococcus aureus MBT 5040 and Staphylococcus aureus MBT 5040-LysoR co-infected in CF1 mouse assessed as kidney infection after 7 days
Staphylococcus aureus [5] = assay: Antibacterial activity against methicillin-resistant Staphylococcus aureus Col
Staphylococcus aureus [6] = assay: Antibacterial activity against methicillin-resistant Staphylococcus aureus Col-LysoR
Staphylococcus aureus [7] = assay: Antibacterial activity against methicillin-resistant Staphylococcus aureus MBT 5040
Staphylococcus aureus [8] = assay: Antibacterial activity against methicillin-resistant Staphylococcus aureus MBT 5040-LysoR

SMILES	CFU (Staphylococcus aureus [1])	CFU (Staphylococcus aureus [2])	CFU (Staphylococcus aureus [3])	CFU (Staphylococcus aureus [4])	MIC (Staphylococcus aureus [5]) [µg/mL]	MIC (Staphylococcus aureus [6]) [µg/mL]	MIC (Staphylococcus aureus [7]) [µg/mL]	MIC (Staphylococcus aureus [8]) [µg/mL]
CCOc1ccc2ccccc2c1C(=O)N[C@@H]1C(=O)N2[C@@H]1SC(C)(C)[C@@H]2C(=O)O [NAFCILLIN]	10780	9960	5630	9520				
Cc1onc(-c2ccccc2)c1C(=O)N[C@@H]1C(=O)N2[C@@H]1SC(C)(C)[C@@H]2C(=O)[O-].[Na+]					> 32	0.25	> 32	0.25
